What was measured:
Assay in all cases: relative viability (nuclei count vs DMSO), 5 days (fraction); higher = more cells survive
Venetoclax + OSI-027 = compound: CC1(C)CCC(CN2CCN(c3ccc(C(=O)NS(=O)(=O)c4ccc(NCC5CCOCC5)c([N+](=O)[O-])c4)c(Oc4cnc5[nH]ccc5c4)c3)CC2)=C(c2ccc(Cl)cc2)C1 [Venetoclax] + COc1cccc2cc(-c3nc([C@H]4CC[C@H](C(=O)O)CC4)n4ncnc(N)c34)[nH]c12 [OSI-027] (partner 0.5 µM)
Outline: (§1)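 Relative viability is defined as nuclei in treated wells over nuclei in vehicle wells. Duplicate plates were run and medians reported. Lung cancer cell lines in 1536-well plates were dosed by pin tool one day after seeding, with one drug or with a fixed anchor-drug dose plus five library-drug doses (not always all listed) in √10 steps, and nuclei were counted after 5 days.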

Venetoclax + Tozasertib = compound: CC1(C)CCC(CN2CCN(c3ccc(C(=O)NS(=O)(=O)c4ccc(NCC5CCOCC5)c([N+](=O)[O-])c4)c(Oc4cnc5[nH]ccc5c4)c3)CC2)=C(c2ccc(Cl)cc2)C1 [Venetoclax] + Cc1cc(Nc2cc(N3CCN(C)CC3)nc(Sc3ccc(NC(=O)C4CC4)cc3)n2)n[nH]1 [Tozasertib] (partner 0.1 µM)
Outline: as §1

Venetoclax + AZD7762 = compound: CC1(C)CCC(CN2CCN(c3ccc(C(=O)NS(=O)(=O)c4ccc(NCC5CCOCC5)c([N+](=O)[O-])c4)c(Oc4cnc5[nH]ccc5c4)c3)CC2)=C(c2ccc(Cl)cc2)C1 [Venetoclax] + NC(=O)Nc1cc(-c2cccc(F)c2)sc1C(=O)N[C@H]1CCCNC1 [AZD7762] (partner 0.2 µM)
Outline: as §1

Selumetinib + Alpelisib = compound: Cn1cnc2c(F)c(Nc3ccc(Br)cc3Cl)c(C(=O)NOCCO)cc21 [Selumetinib] + Cc1nc(NC(=O)N2CCC[C@H]2C(N)=O)sc1-c1ccnc(C(C)(C)C(F)(F)F)c1 [Alpelisib] (partner 2 µM)
Outline: as §1

Cell Line	relative viability (Venetoclax + OSI-027; first compound 0.01 µM)	relative viability (Venetoclax + OSI-027; first compound 0.03162 µM)	relative viability (Venetoclax + OSI-027; first compound 0.1 µM)	relative viability (Venetoclax + OSI-027; first compound 0.3162 µM)	relative viability (Venetoclax + OSI-027; first compound 1 µM)	relative viability (Venetoclax + Tozasertib; first compound 0.01 µM)	relative viability (Venetoclax + Tozasertib; first compound 0.03162 µM)	relative viability (Venetoclax + Tozasertib; first compound 0.1 µM)	relative viability (Venetoclax + Tozasertib; first compound 0.3162 µM)	relative viability (Venetoclax + Tozasertib; first compound 1 µM)	relative viability (Venetoclax + AZD7762; first compound 0.01 µM)	relative viability (Venetoclax + AZD7762; first compound 0.03162 µM)	relative viability (Venetoclax + AZD7762; first compound 0.1 µM)	relative viability (Venetoclax + AZD7762; first compound 0.3162 µM)	relative viability (Venetoclax + AZD7762; first compound 1 µM)	relative viability (Selumetinib + Alpelisib; first compound 0.02 µM)	relative viability (Selumetinib + Alpelisib; first compound 0.06325 µM)	relative viability (Selumetinib + Alpelisib; first compound 0.2 µM)	relative viability (Selumetinib + Alpelisib; first compound 0.6325 µM)
NCI-H2342	0.767	0.708	0.554	0.715	0.665	0.59	0.617	0.375	0.568	0.656	0.734	0.75	0.491	0.388	0.53	–	–	–	–
SK-MES-1	0.61	0.626	0.599	0.572	0.518	0.824	0.968	0.958	0.852	0.708	–	–	–	–	–	0.851	0.587	0.56	0.396
LCLC-97TM1	0.519	0.704	0.556	0.478	0.465	0.302	0.27	0.207	0.185	0.202	0.323	0.26	0.263	0.266	0.25	0.275	0.25	0.259	0.185
HCC-44	0.609	0.652	0.539	0.589	0.477	0.747	0.978	0.894	0.791	0.715	1.01	0.99	1.04	0.929	0.924	0.88	0.72	0.719	0.663
201T	0.728	0.724	0.687	0.774	0.628	0.826	0.957	0.945	0.91	0.941	0.572	0.634	0.612	0.644	0.639	0.95	0.954	0.906	0.824
HOP-62	0.879	0.861	0.842	0.838	0.78	0.414	0.321	0.409	0.31	0.313	0.486	0.841	0.522	0.726	0.494	0.86	0.962	0.965	0.465
NCI-H661	0.682	0.789	0.705	0.681	0.617	0.353	0.335	0.313	0.345	0.333	–	–	–	–	–	0.653	0.598	0.501	0.606
NCI-H2087	0.534	0.735	0.456	0.539	0.435	0.278	0.261	0.245	0.241	0.229	1.26	1.32	1.17	1.46	1.56	0.777	0.65	0.515	0.306
NCI-H647	0.69	0.769	0.625	0.589	0.509	0.228	0.225	0.361	0.22	0.262	0.402	0.429	0.364	0.539	0.394	1.14	1.09	0.932	0.809
SW 1573	0.573	0.658	0.585	0.506	0.529	0.217	0.206	0.207	0.137	0.171	–	–	–	–	–	0.868	0.707	0.618	0.552
A-427	0.449	0.572	0.434	0.487	0.46	0.203	0.24	0.212	0.201	0.186	0.752	0.762	0.674	0.784	0.709	1.06	1.05	0.936	0.817
NCI-H520	0.262	0.287	0.209	0.253	0.217	0.413	0.406	0.434	0.443	0.403	–	–	–	–	–	0.992	0.762	0.86	1
NCI-H1755	0.73	0.74	0.68	0.757	0.667	0.569	0.504	0.586	0.593	0.547	0.445	0.471	0.379	0.386	0.411	0.896	0.845	0.783	0.856
NCI-H1975	0.768	0.788	0.667	0.702	0.68	0.763	0.711	0.726	0.658	0.374	0.737	0.709	0.672	0.822	0.67	0.643	0.511	0.413	0.37
Calu-6	–	–	–	–	–	–	–	–	–	–	–	–	–	–	–	0.936	0.613	0.486	0.346
SK-LU-1	0.38	0.436	0.345	0.365	0.329	0.341	0.316	0.275	0.336	0.286	–	–	–	–	–	1.01	0.988	0.838	0.542
EMC-BAC-2	0.405	0.441	0.371	0.403	0.353	0.3	0.285	0.28	0.273	0.259	1.11	1.15	1.07	1.08	1.03	0.678	0.694	0.645	0.712
LK-2	0.317	0.204	0.22	0.22	0.161	0.154	0.18	0.19	0.18	0.192	0.634	0.673	0.461	0.356	0.381	1.01	1.13	0.949	0.985

— the supplement of paper PMC10307832
